Assay results reported in ChEMBL document CHEMBL6087460, “Generating a Peptide Library Using the Repeats of Amino Acid Scaffolds Created by Sliding the Framework of a 7-mer Human Chemerin Segment and Discovery of Potent Antibacterial and Antimycobacterial Peptides” (J Med Chem, 2025).
The source made the active and inactive calls. The calls are words filed in the database; no cut-off is given here. Where a SMILES comes first, the peptide text is derived from it.

Legend:
Pseudomonas aeruginosa = assay: Antibacterial activity against Pseudomonas aeruginosa ATCC BAA-427 incubated for 16 to 18 hrs by broth dilution assay; format: functional; conditions: time 16-18 hrs
[1] = Stability in 10 percent human serum assessed as compound remaining measured after 60 mins by RP-HPLC analysis; format: ADME, cell-free; conditions: 10% human serum, read-out: Stability
Staphylococcus aureus [2] = assay: Antibacterial activity against methicillin-resistant Staphylococcus aureus 33591 incubated for 16 to 18 hrs by broth dilution assay; format: functional; conditions: time 16-18 hrs
Staphylococcus aureus [3] = assay: Antibacterial activity against methicillin-resistant Staphylococcus aureus BAA-44 incubated for 16 to 18 hrs by broth dilution assay; format: functional; conditions: time 16-18 hrs
Bacillus subtilis = assay: Antibacterial activity against Bacillus subtilis 6633 incubated for 16 to 18 hrs by broth dilution assay; format: functional; conditions: time 16-18 hrs
[4] = Hemolytic activity in human RBC at 100 uM measured after 40 mins by absorbance based assay relative to control; format: toxicity, cell-based, Erythrocyte
Klebsiella pneumoniae = assay: Antibacterial activity against Klebsiella pneumoniae ATCC 27736 incubated for 16 to 18 hrs by broth dilution assay; format: functional; conditions: time 16-18 hrs
[5] = Hemolytic activity in human RBC measured after 40 mins by absorbance based assay; format: toxicity, cell-based, Erythrocyte; conditions: human red blood cells
Staphylococcus aureus [6] = assay: Antibacterial activity against Staphylococcus aureus ATCC 25923 incubated for 16 to 18 hrs by broth dilution assay; format: functional; conditions: time 16-18 hrs
Escherichia coli [7] = assay: Antibacterial activity against Escherichia coli ATCC 25922 incubated for 16 to 18 hrs by broth dilution assay; format: functional; conditions: time 16-18 hrs
[8] = Retention time of compound by RP-HPLC method; format: physicochemical
[9] = Drug localization in cell membrane of Escherichia coli ATCC 25922 at 3 times MIC by confocal microscopy; format: ADME, cell membranes
[10] = Toxicity in BALB/c mouse assessed as animal survival at 15 mg/kg, iv administered thrice at 2 hrs interval measured after 7 days; format: organism-based; conditions: in vivo, 168 h, time 7 day
[11] = Hemolytic activity in human RBC assessed as disruption of membrane integrity by Alexa Fluor-Annexin V staining based analysis; format: toxicity, cell-based; conditions: erythrocyte
Escherichia coli [12] = assay: Bactericidal activity against Escherichia coli ATCC 25922 at MIC incubated for 45 mins by time kill assay; format: functional, organism-based
Escherichia coli [13] = assay: Bactericidal activity against Escherichia coli ATCC 25922 incubated for 16 to 18 hrs; format: functional; conditions: time 16-18 hrs
Escherichia coli [14] = assay: Disruption of membrane integrity in Escherichia coli ATCC 25922 by PI staining based analysis; format: functional, organism-based
Staphylococcus aureus [15] = assay: Bactericidal activity against Staphylococcus aureus ATCC 25923 at MIC incubated for 45 mins by time kill assay; format: functional, organism-based
Escherichia coli [16] = assay: Disruption of plasma membrane integrity in Escherichia coli ATCC 25922 by SYTOX-Green uptake assay; format: functional, organism-based
[17] = Toxicity in BALB/c mouse assessed as change in ALT level at 15 mg/kg, iv administered thrice at 2 hrs interval measured after 7 days; format: organism-based; conditions: in vivo, 168 h, time 7 day
Escherichia coli [18] = assay: Antibacterial activity against Escherichia coli ATCC 25922 incubated for 16 to 18 hrs in presence of 10 percent human serum by broth dilution assay; format: functional; conditions: time 16-18 hrs
[19] = Cytotoxicity against mouse 3T3-L1 cells assessed as cell viability at 100 uM incubated for 24 hrs by MTT assay relative to control; format: toxicity, cell-based; conditions: 3T3-L1 cells, read-out: Activity
Staphylococcus aureus [20] = assay: Disruption of membrane integrity in Staphylococcus aureus ATCC 25923 by PI staining based analysis; format: functional, organism-based
Escherichia coli [21] = assay: Antibacterial activity against Escherichia coli ATCC 25922 infected in BALB/c mouse assessed as bacterial count in spleen at 5 mg/kg, iv administered thrice at 1,3 and 5 hrs post-infection measured after 24 hrs post-last dose (Rvb ~ 1.9 x10^7 CFU/mL); format: functional; conditions: time 29 hrs
Escherichia coli [22] = assay: Antibacterial activity against Escherichia coli ATCC 25922 infected in BALB/c mouse assessed as bacterial count in kidney at 5 mg/kg, iv administered thrice at 1,3 and 5 hrs post-infection measured after 24 hrs post-last dose (Rvb ~ 1.8 x10^7 CFU/mL); format: functional; conditions: time 29 hrs
Escherichia coli [23] = assay: Antibacterial activity against Escherichia coli ATCC 25922 infected in BALB/c mouse assessed as bacterial load in blood at 5 mg/kg, iv administered thrice at 1,3 and 5 hrs post-infection measured after 24 hrs post-last dose (Rvb ~ 4 x10^6 CFU/mL); format: functional; conditions: time 29 hrs
[24] = Toxicity in BALB/c mouse infected with Escherichia coli ATCC 25922 assessed as animal survival at 5 mg/kg, iv administered thrice at 1,3 and 5 hrs post-infection measured after 7 days; format: organism-based; conditions: in vivo, 168 h, time 7 day
Escherichia coli [25] = assay: Antibacterial activity against Escherichia coli ATCC 25922 infected in BALB/c mouse assessed as bacterial count in blood at 5 mg/kg, iv administered thrice at 1,3 and 5 hrs post-infection measured after 24 hrs post-last dose (Rvb ~ 9.6 x10^6 CFU/mL); format: functional; conditions: time 29 hrs
Escherichia coli [26] = assay: Induction of membrane depolarization in Escherichia coli ATCC 25922 by diSC3-5 dye based analysis; format: functional, organism-based
[27] = Toxicity in BALB/c mouse assessed as change in AST level at 15 mg/kg, iv administered thrice at 2 hrs interval measured after 7 days; format: organism-based; conditions: in vivo, 168 h, time 7 day
[28] = system: Mycolicibacterium smegmatis; assay: Antitubercular activity against Mycobacterium smegmatis incubated for 24 hrs by rezasurin dye based assay; format: functional
Staphylococcus aureus [29] = assay: Bactericidal activity against Staphylococcus aureus ATCC 25923 incubated for 16 to 18 hrs; format: functional; conditions: time 16-18 hrs
Escherichia coli [30] = assay: Bactericidal activity against Escherichia coli ATCC 25922 at MIC incubated for 30 mins by time kill assay; format: functional, organism-based
Staphylococcus aureus [31] = assay: Induction of membrane depolarization in Staphylococcus aureus ATCC 25923 by diSC3-5 dye based analysis; format: functional, organism-based
Staphylococcus aureus [32] = assay: Antibacterial activity against Staphylococcus aureus ATCC 25923 incubated for 16 to 18 hrs in presence of 10 percent human serum by broth dilution assay; format: functional; conditions: time 16-18 hrs
[33] = Toxicity in BALB/c mouse infected with Escherichia coli ATCC 25922 assessed as animal survival at 2.5 mg/kg, iv administered thrice at 1,3 and 5 hrs post-infection measured after 7 days; format: organism-based; conditions: in vivo, 168 h, time 7 day
[34] = Cytotoxicity against rat L6 cells assessed as cell viability at 100 uM incubated for 24 hrs by MTT assay relative to control; format: toxicity, cell-based; conditions: L6 cells, read-out: Activity
Staphylococcus aureus [35] = assay: Disruption of plasma membrane integrity in Staphylococcus aureus ATCC 25923 by SYTOX-Green uptake assay; format: functional, organism-based
Escherichia coli [36] = assay: Antibacterial activity against Escherichia coli ATCC 25922 infected in BALB/c mouse assessed as bacterial count in liver at 5 mg/kg, iv administered thrice at 1,3 and 5 hrs post-infection measured after 24 hrs post-last dose (Rvb ~ 2.3 x10^7 CFU/mL); format: functional; conditions: time 29 hrs
Staphylococcus aureus [37] = assay: Bactericidal activity against Staphylococcus aureus ATCC 25923 at MIC incubated for 60 mins by time kill assay; format: functional, organism-based
Escherichia coli [38] = assay: Bactericidal activity against Escherichia coli ATCC 25922 at MIC incubated for 60 mins by time kill assay; format: functional, organism-based

Compound | MIC (Pseudomonas aeruginosa) | MIC (Staphylococcus aureus [2]) | MIC (Staphylococcus aureus [3]) | MIC (Bacillus subtilis) | MIC (Klebsiella pneumoniae) | HC50 at 40 min [5] | MIC (Staphylococcus aureus [6]) | MIC (Escherichia coli [7]) | Retention_time [8] | Activity [11] | MBC (Escherichia coli [13]) | Activity (Escherichia coli [14]) | Activity (Escherichia coli [16]) | MIC (Escherichia coli [18]) | viability at 24 h, 100 µM [19] | Activity (Staphylococcus aureus [20]) | Activity (Escherichia coli [26]) | MIC [28] | MBC (Staphylococcus aureus [29]) | Activity (Staphylococcus aureus [31]) | other results
H-KVLKVLKVLKVLKVL-OH | 14.5 µM | 3.6 µM | 3.6 µM | 3.6 µM | 3.6 µM | 0.256 mM | 3.6 µM | 1.8 µM | 20.77 min |  |  |  |  |  |  |  |  |  |  |  | remaining at 1 h [1]: 65%; hemolysis at 40 min, 100 µM ([4]; human red blood cells, read-out: Activity): 20%
CC(C)C[C@H](NC(=O)[C@H](CCCNC(=N)N)NC(=O)[C@@H](NC(=O)[C@H](CC(C)C)NC(=O)[C@H](CCCNC(=N)N)NC(=O)[C@@H](NC(=O)[C@H](CC(C)C)NC(=O)[C@H](CCCNC(=N)N)NC(=O)[C@@H](NC(=O)[C@H](CC(C)C)NC(=O)[C@H](CCCNC(=N)N)NC(=O)c1cc(C(=O)O)ccc1-c1c2ccc(=[N+](C)C)cc-2oc2cc(N(C)C)ccc12)C(C)C)C(C)C)C(C)C)C(=O)N[C@H](C(=O)O)C(C)C.[Cl-] (HELM PEPTIDE1{[CN(C)c1ccc2c(-c3ccc(C(=O)O)cc3C(=O)[*:2])c3ccc(=[N+](C)C)cc-3oc2c1].R.L.V.R.L.V.R.L.V.R.L.V}$$$$V2.0) |  |  |  |  |  |  |  |  |  |  |  |  |  |  |  |  |  |  |  |  | Drug uptake [9]: Active
H-KVLKVLKVLKVL-OH | 9 µM | 9 µM | 2.3 µM | 9 µM | 4.5 µM | 2 mM | 18.1 µM | 1.1 µM | 19.44 min | Non-toxic | 2.2 µM | Active | Active | 2.2 µM | 75% | Active | Active | > 10 µM | 18.1 µM | Active | Activity [10]: Non-toxic; Activity (Escherichia coli [12]): Active; Activity (Staphylococcus aureus [15]): Active; Activity [17]: Non-toxic; Activity (Escherichia coli [21]): 7800 CFU/ml; Activity (Escherichia coli [22]): 2.9 10^4CFU/ml; Activity (Escherichia coli [23]): 3400 CFU/ml; Survival [24]: 80%; Activity (Escherichia coli [25]): 2656 CFU/ml; Activity [27]: Non-toxic; Activity (Escherichia coli [30]): Active; Emerged As Swiftest Molecule; MIC (Staphylococcus aureus [32]): 36.2 µM; Survival [33]: 40%; viability at 24 h, 100 µM [34]: 75%; Activity (Staphylococcus aureus [35]): Active; Activity (Escherichia coli [36]): 9100 CFU/ml
H-LGRLLGRLLGRL-OH | 37.4 µM | 9.4 µM | 4.7 µM | 9.4 µM | 37.4 µM | 2 mM | 9.4 µM | 9.4 µM | 15.4 min | Non-toxic | 18.2 µM | Active | Active | 18.2 µM | > 80% | Active | Active | 5 µM | 18.2 µM | Active | Activity (Staphylococcus aureus [37]): Active; Exhibited Rapid Kinetics; Activity ([4]; erythrocyte, 40 min, 100 µM): Non-toxic; MIC (Staphylococcus aureus [32]): 18.2 µM; viability at 24 h, 100 µM [34]: > 80%; Activity (Staphylococcus aureus [35]): Active; Activity (Escherichia coli [38]): Active; Exhibited Rapid Kinetics
